The results in this text go back to patent publication US12049646B2, “SC-beta cells and compositions and methods for generating the same” (President and Fellows of Harvard College, priority 2013, dated 2024).

Holding throughout (format): cell-based, human
Test [1] relates to SC-β cells. The test can be described thus: Insulin secretion of plated SC-β cells treated with anti-diabetic drugs in 2 and 20 mM glucose. Conditions: drug-treated versus control. The source says:
The inventors first tested whether SC-β cells could respond to existing anti-diabetic drugs from several different classes (FIG. 16B). LY2608204 is glucokinase activator in clinical trials while liraglutide, tolbutamide, and nateglinide are examples of GLP-1 agonists and secretagogues (sulfonylureas and meglitinides), respectively, that have been used clinically (Matschinsky, 2009; Modi, 2007; Vetere et al., 2014).

In test [2] the test system is hPSC derived cells. Description: Protocol modifications at Steps 3-6: cell survival and marker-positive populations. Conditions: for cell survival: treatment during Steps 3-5 of differentiation. The source says:
One challenge for the stem cell field has been generating a sufficient quantity of SC-β cells that can be useful for drug screening, disease modeling, or therapeutic use. For example, hES cells are technically difficult to culture, are vulnerable to apoptosis upon cellular detachment and dissociation, undergo massive cell death particularly after complete dissociation, and have low cloning efficiency. (Watanabe, K. et al., Nature Biotechnology 25, 681-686 (2007)). As a result, the quantity of viable SC-β cells yielded may be low. By modify the protocol between Steps 3 and 6 in the manner shown in FIG. 15A, more pure NKX6.1+ endocrine clusters can be generated (FIG. 15B) leading to more SC-β cells that can be therapeutically useful.
In Steps 3-5, for instance, cell survival can be improved by adding a rho-associated protein kinase inhibitor, or a Rock inhibitor. It is believed that the addition of a Rock inhibitor enhances survival of ES cells by preventing dissociation-induced apoptosis thus increasing their cloning efficiency. (Watanabe et al.) Examples of Rock inhibitors include, but are not limited to, Y-27632, Fasudil/HA1077, and H-1152.
In addition to treating the cells with a Rocki inhibitor, the cells in Steps 3-4 can be treated with ActivinA alone or in combination with Nicotinamide. […] Since SOX2 and NKX6-1 are mutually exclusive (FIG. 15E), down-regulation of SOX2 results in the up-regulation of NKX6-1, a marker for a mature pancreatic β cell.
In Steps 5-6, cell survival can further be enhanced by treating cells with staurosporine. Staurosporine is known to be an activator of neuronal, glial, and stem cell-like neurosphere differentiation and is also thought to induce apoptosis. (Schumacher, et al., Mol. Cell. Neurosci. 2003; 23(4): 669-680).
Finally, cell survival can further be enhanced by treating cells with a culture medium containing Alk5i, T3 in combination with XXI, a γ-secretase inhibitor that improves β cell maturation.
Cells were dispersed into single-cell suspension by incubation in TrypLE Express at 37° C. for 10-30 min in a 15 ml falcon tube. Starting at stage 5, clusters take longer to dissociate into single cells. Clusters should be incubated with TrypLE Express until they dissociate to single cells upon mixing by pipetting gently up and down with a P1000. The TrypLE Express was quenched with 3-4 times media and cells were spun down for 5 min at 1000 rpm. Cells were washed twice in PBS and transferred to a 1.7 ml Safe seal microcentrifuge tube (Bioscience Inc.; 11510). Make sure having 1-10 mio cells/tube and use 0.5-1 ml volumes in the following. Cells were resuspended in 4% paraformaldehyde (PFA) (Electron Microscopy Science Nm; 15710) and incubated on ice for 30 min. Cells were then washed 3 times in PBS followed by incubation in blocking buffer (PBS+0.1% TritonX100 (VWR; EM-9400)+5% donkey serum (Jackson Immunoresearch; 017-000-121)) on ice for 1 hour. After fixation cells are more resistant to centrifugation, so after fixation all centrifugations were done at 3000 g for 3 min. Cells were then resuspended in blocking buffer with primary antibodies and incubated at 4° C. overnight. […]

Test [3] concerns SC-β cells. Description: GSIS of SC-β cells after adding factors to the CMRL media at the last differentiation step (Stage 6). Conditions: factor added to CMRL media containing Alk5 inhibitor and T3 hormone, versus CMRL only, CMRL+Alk5 inhibitor+T3 or S3+Alk5 inhibitor+T3; for stimulation index (ratio of insulin secreted in high glucose to low glucose): 15 mM vs 2.5 mM glucose. An excerpt: To induce the in vitro maturation of at least some of the Pdx1-positive, NKX6-1-positive, insulin-positive endocrine cells into SC-β cells, the Pdx1-positive, NKX6-1-positive, insulin-positive endocrine cells are maintained in a suitable culture medium for a sufficient period of time. […] Adding additional factors to the CMRL media at the last step of differentiation (Stage 6) (FIG. 14A), however, was also found to generate a better glucose stimulated insulin secretion (GSIS) response by SC-β cells as measured by either stimulation index between high and low glucose challenges or by the amount of insulin released. Such additional factors may include, but are not limited to, Sant1, XXI, and SSP. The stimulation index, as calculated by the ratio of insulin secreted in high glucose (15 mM) to low glucose (2.5 mM), was greater for the SC-β cells maintained in a CMRL media containing Alk5 inhibitor, T3 hormone and either Sant1, XXI or SSP than those SC-β cells maintained in only CMRL media, CMRL media containing Alk5 inhibitor and T3 hormone, or S3 media containing Alk5 inhibitor and T3 hormone (FIG. 14B). Furthermore, the amount of insulin secreted was greater for the SC-β cells maintained in a CMRL media containing Alk5 inhibitor, T3 hormone and either Sant1, XXI or SSP than those SC-β cells maintained in only CMRL media, CMRL media containing Alk5 inhibitor and T3 hormone, or S3 media containing Alk5 inhibitor and T3 hormone (FIG. 14C).
Alternatively, Days 21-35: CMRLS+10 μM Alk5i II+1 μM T3+Sant1.
Alternatively, Days 21-35: CMRLS+10 μM Alk5i II+1 μM T3+XXI.
Alternatively, Days 21-35: CMRLS+10 μM Alk5i II+1 μM T3+SSP.

Consider `O=C(Nc1ncc(SCCN2CCCC2)s1)[C@]1(c2ccc(S(=O)(=O)C3CC3)cc2)C[C@H]1C1CCCCC1` [LY2608204], for which the “insulin secretion of SC-β cells following a glucose challenge” value (“insulin secretion” below) in test [1] is given as “trend toward responding to treatment with these drugs by increasing insulin secretion”.

Turning to `NC(=O)c1cccnc1` [Nicotinamide], in test [2], the cell survival entry is on record as “improve cell survival”.

As to `Cc1nn(-c2ccccc2)c(C)c1/C=N/N1CCN(Cc2ccccc2)CC1` [Sant1], in test [3], the “stimulation index (ratio of insulin secreted in high glucose to low glucose)” value is “greater” and the “amount of insulin secreted” value was “greater”.

As to `C[C@H](NC(=O)Cc1cc(F)cc(F)c1)C(=O)N[C@H]1N=C(c2ccccc2)c2ccccc2N(C)C1=O` [XXI], in test [3], the “stimulation index (ratio of insulin secreted in high glucose to low glucose)” value is listed as “greater” and the “amount of insulin secreted” value is “greater”. Further, the “NeuroD1+ population” value in test [2] (added to medium with Alk5i and T3 at Steps 5 and 6, versus Alk5i and T3 only) is given as “increase the NeuroD1+ population”.

For `CC(C)[C@H]1CC[C@H](C(=O)N[C@H](Cc2ccccc2)C(=O)O)CC1` [nateglinide], in test [1], the “insulin secretion” value was “trend toward responding to treatment with these drugs by increasing insulin secretion”.

For `CN[C@@H]1C[C@H]2O[C@@](C)([C@@H]1OC)n1c3ccccc3c3c4c(c5c6ccccc6n2c5c31)C(=O)NC4` [staurosporine], in test [2] (treatment in Steps 5-6), the “percentage of Chromogranin A (pancreatic endocrine cell marker)” value is on record as “increasing the percentage of Chromogranin A” and the “percentage of NKX6-1/C-peptide+ cells” value is given as “increasing the percentage of NKX6-1.C-peptide+ cells”.

On to `CCCCNC(=O)NS(=O)(=O)c1ccc(C)cc1` [tolbutamide], for which the “insulin secretion” value in test [1] was “trend toward responding to treatment with these drugs by increasing insulin secretion”.

B1: Activin A: growth factor from the TGF-β superfamily (protein, UniProt P08476 311-426, looked up)
Inhibin beta A chain: GLECDGKVNICCKKQFFVSFKDIGWNDWIIAPSGYHANYCEGECPSHIAGTSGSSLSFHSTVINHYRMRGHSPFANLKSCCVPTKLRPMSMLYYDDGQNIIKKDIQNMIVEECGCS
modifications: Inhibin beta A chain
notes: growth factor from the TGF-β superfamily
Consider B1, for which the cell survival entry in test [2] is reported as “improve cell survival”.
